Reference: ChEMBL document CHEMBL4507316 (2021)
Activity calls are given as the source filed them. No cut-off for these calls is given here.

Columns and labels:
[1] = target: 5-hydroxytryptamine receptor 2B (Homo sapiens, UniProt P41595); test: GPCRScan assay: inhibition of 5-HT2B; set-up: radioligand conc. used [nm] 1.0 – 2.0, parental cells stable HEK
[2] = target: Sigma intracellular receptor 2 (Homo sapiens, UniProt Q5BJF2); test: GPCRScan assay: inhibition of Sigma 2; set-up: radioligand conc. used [nm] 5.0, parental cells HEKT
[3] = target: Mitogen-activated protein kinase 11 (Homo sapiens, UniProt Q15759); test: NanoBRET (MAPK11)
[4] = tested on: Tyrosine-protein kinase ABL1 (Homo sapiens), P00519 [G250E]; test: ABL1 G250E ProQinase selectivity panel; conditions: Compound concentration 1.0 uM
[5] = tested on: Tyrosine-protein kinase ABL1 (Homo sapiens), P00519 [H396P]; test: ABL1 H396P ProQinase selectivity panel; conditions: Compound concentration 1.0 uM
[6] = tested on: Tyrosine-protein kinase ABL1 (Homo sapiens), P00519 [M351T]; test: ABL1 M351T ProQinase selectivity panel; conditions: Compound concentration 1.0 uM
[7] = target: Tyrosine-protein kinase ABL1 (Homo sapiens) (UniProt P00519); test: ABL1 wt ProQinase selectivity panel; conditions: Compound concentration 1.0 uM
[8] = target: Activin receptor type-1B (Homo sapiens) (UniProt P36896); test: ACV-R1B ProQinase selectivity panel; conditions: Compound concentration 1.0 uM
[9] = target: Tyrosine-protein kinase receptor UFO (Homo sapiens) (UniProt P30530); test: AXL ProQinase selectivity panel; conditions: Compound concentration 1.0 uM
[10] = target: Serine/threonine-protein kinase B-raf (Homo sapiens) (UniProt P15056); test: B-RAF wt ProQinase selectivity panel; conditions: Compound concentration 1.0 uM
[11] = target: Serine/threonine-protein kinase MRCK beta (Homo sapiens) (UniProt Q9Y5S2); test: CDC42BPB ProQinase selectivity panel; conditions: Compound concentration 1.0 uM
[12] = target: CDK6/cyclin D1 (Homo sapiens) (UniProt P24385+Q00534); test: CDK6/CycD1 ProQinase selectivity panel; format: protein-complex assay; conditions: Compound concentration 1.0 uM
[13] = target: Dual specificity protein kinase CLK3 (Homo sapiens) (UniProt P49761); test: CLK3 ProQinase selectivity panel; conditions: Compound concentration 1.0 uM
[14] = target: Death-associated protein kinase 3 (Homo sapiens) (UniProt O43293); test: DAPK3 ProQinase selectivity panel; conditions: Compound concentration 1.0 uM
[15] = tested on: Epidermal growth factor receptor (Homo sapiens), P00533 [UNDEFINED MUTATION]; test: EGF-R d746-750 ProQinase selectivity panel; conditions: Compound concentration 1.0 uM
[16] = target: Ephrin type-A receptor 7 (Homo sapiens) (UniProt Q15375); test: EPHA7 ProQinase selectivity panel; conditions: Compound concentration 1.0 uM
[17] = target: Ephrin type-B receptor 2 (Homo sapiens) (UniProt P29323); test: EPHB2 ProQinase selectivity panel; conditions: Compound concentration 1.0 uM
[18] = target: Ephrin type-B receptor 3 (Homo sapiens) (UniProt P54753); test: EPHB3 ProQinase selectivity panel; conditions: Compound concentration 1.0 uM
[19] = target: Receptor tyrosine-protein kinase erbB-2 (Homo sapiens) (UniProt P04626); test: ERBB2 ProQinase selectivity panel; conditions: Compound concentration 1.0 uM
[20] = target: Focal adhesion kinase 1 (Homo sapiens) (UniProt Q05397); test: FAK ProQinase selectivity panel; conditions: Compound concentration 1.0 uM
[21] = target: Tyrosine-protein kinase FRK (Homo sapiens) (UniProt P42685); test: FRK ProQinase selectivity panel; conditions: Compound concentration 1.0 uM
[22] = target: G protein-coupled receptor kinase 3 (Homo sapiens) (UniProt P35626); test: GRK3 ProQinase selectivity panel; conditions: Compound concentration 1.0 uM
[23] = target: G protein-coupled receptor kinase 5 (Homo sapiens) (UniProt P34947); test: GRK5 ProQinase selectivity panel; conditions: Compound concentration 1.0 uM
[24] = target: Mitogen-activated protein kinase 10 (Homo sapiens) (UniProt P53779); test: JNK3 ProQinase selectivity panel; conditions: Compound concentration 1.0 uM
[25] = target: Mitogen-activated protein kinase kinase kinase 11 (Homo sapiens) (UniProt Q16584); test: MAP3K11 ProQinase selectivity panel; conditions: Compound concentration 1.0 uM
[26] = target: MAP kinase-activated protein kinase 3 (Homo sapiens) (UniProt Q16644); test: MAPKAPK3 ProQinase selectivity panel; conditions: Compound concentration 1.0 uM
[27] = tested on: Hepatocyte growth factor receptor (Homo sapiens), P08581 [D1228N]; test: MET D1228N ProQinase selectivity panel; conditions: Compound concentration 1.0 uM
[28] = tested on: Dual specificity mitogen-activated protein kinase kinase 6 (Homo sapiens), P52564 [S207D,T211D]; test: MKK6 S207D/T211D ProQinase selectivity panel; conditions: Compound concentration 1.0 uM
[29] = target: Serine/threonine-protein kinase Nek3 (Homo sapiens) (UniProt P51956); test: NEK3 ProQinase selectivity panel; conditions: Compound concentration 1.0 uM
[30] = target: Serine/threonine-protein kinase Nek7 (Homo sapiens) (UniProt Q8TDX7); test: NEK7 ProQinase selectivity panel; conditions: Compound concentration 1.0 uM
[31] = target: Serine/threonine-protein kinase PAK 3 (Homo sapiens) (UniProt O75914); test: PAK3 ProQinase selectivity panel; conditions: Compound concentration 1.0 uM
[32] = target: Serine/threonine-protein kinase pim-1 (Homo sapiens) (UniProt P11309); test: PIM1 ProQinase selectivity panel; conditions: Compound concentration 1.0 uM
[33] = target: Serine/threonine-protein kinase pim-3 (Homo sapiens) (UniProt Q86V86); test: PIM3 ProQinase selectivity panel; conditions: Compound concentration 1.0 uM
[34] = target: Serine/threonine-protein kinase PLK3 (Homo sapiens) (UniProt Q9H4B4); test: PLK3 ProQinase selectivity panel; conditions: Compound concentration 1.0 uM
[35] = target: Serine/threonine-protein kinase D2 (Homo sapiens) (UniProt Q9BZL6); test: PRKD2 ProQinase selectivity panel; conditions: Compound concentration 1.0 uM
[36] = target: Receptor-interacting serine/threonine-protein kinase 2 (Homo sapiens) (UniProt O43353); test: RIPK2 ProQinase selectivity panel; conditions: Compound concentration 1.0 uM
[37] = target: Proto-oncogene tyrosine-protein kinase ROS (Homo sapiens) (UniProt P08922); test: ROS ProQinase selectivity panel; conditions: Compound concentration 1.0 uM
[38] = target: Serine/threonine-protein kinase Sgk3 (Homo sapiens) (UniProt Q96BR1); test: SGK3 ProQinase selectivity panel; conditions: Compound concentration 1.0 uM
[39] = target: STE20-like serine/threonine-protein kinase (Homo sapiens) (UniProt Q9H2G2); test: SLK ProQinase selectivity panel; conditions: Compound concentration 1.0 uM
[40] = target: Serine/threonine-protein kinase SIK2 (Homo sapiens) (UniProt Q9H0K1); test: SNF1LK2 ProQinase selectivity panel; conditions: Compound concentration 1.0 uM
[41] = target: Serine/threonine-protein kinase 33 (Homo sapiens) (UniProt Q9BYT3); test: STK33 ProQinase selectivity panel; conditions: Compound concentration 1.0 uM
[42] = target: STE20/SPS1-related proline-alanine-rich protein kinase (Homo sapiens) (UniProt Q9UEW8); test: STK39 ProQinase selectivity panel; conditions: Compound concentration 1.0 uM
[43] = target: Tyrosine-protein kinase Tec (Homo sapiens) (UniProt P42680); test: TEC ProQinase selectivity panel; conditions: Compound concentration 1.0 uM
[44] = target: Vascular endothelial growth factor receptor 1 (Homo sapiens) (UniProt P17948); test: VEGF-R1 ProQinase selectivity panel; conditions: Compound concentration 1.0 uM
[45] = target: 5-hydroxytryptamine receptor 1E (Homo sapiens) (UniProt P28566); conditions: Compound concentration 10.0 uM
[46] = target: Delta-type opioid receptor (Homo sapiens) (UniProt P41143); conditions: Compound concentration 10.0 uM
[47] = target: Histamine H1 receptor (Homo sapiens) (UniProt P35367); conditions: Compound concentration 10.0 uM
[48] = target: Muscarinic acetylcholine receptor M2 (Homo sapiens) (UniProt P08172); conditions: Compound concentration 10.0 uM

5-hydroxytryptamine receptor 2B, sequence (P41595 whole entry): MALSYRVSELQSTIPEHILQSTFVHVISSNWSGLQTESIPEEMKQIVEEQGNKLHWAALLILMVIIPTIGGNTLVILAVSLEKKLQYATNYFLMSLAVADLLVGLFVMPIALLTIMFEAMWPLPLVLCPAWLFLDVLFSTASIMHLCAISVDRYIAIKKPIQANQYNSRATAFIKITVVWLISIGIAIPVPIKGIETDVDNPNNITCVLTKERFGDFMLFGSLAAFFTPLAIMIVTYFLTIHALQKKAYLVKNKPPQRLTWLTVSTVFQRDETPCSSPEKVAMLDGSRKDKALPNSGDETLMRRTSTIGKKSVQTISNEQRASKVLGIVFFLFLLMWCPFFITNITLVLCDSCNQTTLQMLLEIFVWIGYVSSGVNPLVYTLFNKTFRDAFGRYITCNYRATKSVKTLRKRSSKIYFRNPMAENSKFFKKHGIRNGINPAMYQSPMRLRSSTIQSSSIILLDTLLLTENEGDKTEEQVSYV
Sigma intracellular receptor 2, sequence (Q5BJF2 whole entry): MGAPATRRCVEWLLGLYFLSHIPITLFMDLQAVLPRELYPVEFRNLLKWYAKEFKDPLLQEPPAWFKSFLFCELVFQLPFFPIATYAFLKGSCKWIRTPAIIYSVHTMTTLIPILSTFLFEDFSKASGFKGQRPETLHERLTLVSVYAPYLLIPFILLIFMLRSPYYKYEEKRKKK
Tyrosine-protein kinase FRK (Homo sapiens), sequence (P42685 whole entry): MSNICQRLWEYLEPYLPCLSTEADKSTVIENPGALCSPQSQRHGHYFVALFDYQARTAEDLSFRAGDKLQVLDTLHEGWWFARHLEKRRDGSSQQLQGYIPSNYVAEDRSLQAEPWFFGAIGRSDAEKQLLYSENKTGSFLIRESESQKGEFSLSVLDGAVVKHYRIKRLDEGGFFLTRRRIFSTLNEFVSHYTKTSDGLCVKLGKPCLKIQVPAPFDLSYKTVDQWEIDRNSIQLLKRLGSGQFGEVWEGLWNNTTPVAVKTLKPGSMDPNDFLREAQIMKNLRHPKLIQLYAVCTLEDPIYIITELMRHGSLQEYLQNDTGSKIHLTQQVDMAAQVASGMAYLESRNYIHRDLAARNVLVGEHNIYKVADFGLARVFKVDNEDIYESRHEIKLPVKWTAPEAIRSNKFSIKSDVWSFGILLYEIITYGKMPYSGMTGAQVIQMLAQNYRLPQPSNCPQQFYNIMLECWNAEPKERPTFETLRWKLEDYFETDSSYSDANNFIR
Serine/threonine-protein kinase D2 (Homo sapiens), sequence (Q9BZL6 whole entry): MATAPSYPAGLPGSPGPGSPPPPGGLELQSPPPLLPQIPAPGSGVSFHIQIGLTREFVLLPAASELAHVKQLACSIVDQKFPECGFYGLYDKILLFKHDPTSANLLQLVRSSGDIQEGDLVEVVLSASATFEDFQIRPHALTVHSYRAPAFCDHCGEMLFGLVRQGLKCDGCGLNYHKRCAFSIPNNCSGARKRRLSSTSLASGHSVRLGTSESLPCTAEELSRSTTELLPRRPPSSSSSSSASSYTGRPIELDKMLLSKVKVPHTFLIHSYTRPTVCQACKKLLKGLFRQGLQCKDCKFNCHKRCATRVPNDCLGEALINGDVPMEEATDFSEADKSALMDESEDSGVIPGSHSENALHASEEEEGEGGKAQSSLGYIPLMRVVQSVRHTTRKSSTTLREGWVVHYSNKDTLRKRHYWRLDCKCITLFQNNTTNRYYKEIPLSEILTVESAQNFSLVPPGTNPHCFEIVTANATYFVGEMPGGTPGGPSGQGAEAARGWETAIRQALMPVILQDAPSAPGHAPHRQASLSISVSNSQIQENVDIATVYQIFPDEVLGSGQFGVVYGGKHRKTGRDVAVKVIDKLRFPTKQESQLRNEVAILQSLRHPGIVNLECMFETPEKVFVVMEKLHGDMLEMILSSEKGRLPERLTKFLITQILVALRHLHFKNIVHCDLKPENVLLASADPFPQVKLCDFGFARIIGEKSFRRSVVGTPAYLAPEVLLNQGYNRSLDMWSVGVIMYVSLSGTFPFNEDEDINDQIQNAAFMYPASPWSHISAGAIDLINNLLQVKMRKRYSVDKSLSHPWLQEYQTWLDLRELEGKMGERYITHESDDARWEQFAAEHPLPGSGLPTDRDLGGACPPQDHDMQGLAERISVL
Receptor-interacting serine/threonine-protein kinase 2 (Homo sapiens), sequence (O43353 whole entry): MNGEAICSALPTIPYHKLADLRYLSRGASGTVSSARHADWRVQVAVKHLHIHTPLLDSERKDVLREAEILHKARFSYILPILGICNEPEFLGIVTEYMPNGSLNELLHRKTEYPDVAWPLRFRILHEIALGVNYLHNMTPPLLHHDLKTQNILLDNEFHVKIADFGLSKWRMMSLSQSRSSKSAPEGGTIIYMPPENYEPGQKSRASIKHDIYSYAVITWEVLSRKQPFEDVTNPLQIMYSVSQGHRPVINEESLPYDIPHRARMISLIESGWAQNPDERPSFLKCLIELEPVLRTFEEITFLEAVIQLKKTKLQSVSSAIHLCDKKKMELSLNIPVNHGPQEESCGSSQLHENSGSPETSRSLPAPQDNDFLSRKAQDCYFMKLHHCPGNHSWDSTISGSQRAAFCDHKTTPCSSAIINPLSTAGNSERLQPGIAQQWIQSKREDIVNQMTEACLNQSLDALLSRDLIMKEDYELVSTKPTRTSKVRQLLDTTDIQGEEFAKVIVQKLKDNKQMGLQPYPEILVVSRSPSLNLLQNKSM
Activin receptor type-1B (Homo sapiens), sequence (P36896 whole entry): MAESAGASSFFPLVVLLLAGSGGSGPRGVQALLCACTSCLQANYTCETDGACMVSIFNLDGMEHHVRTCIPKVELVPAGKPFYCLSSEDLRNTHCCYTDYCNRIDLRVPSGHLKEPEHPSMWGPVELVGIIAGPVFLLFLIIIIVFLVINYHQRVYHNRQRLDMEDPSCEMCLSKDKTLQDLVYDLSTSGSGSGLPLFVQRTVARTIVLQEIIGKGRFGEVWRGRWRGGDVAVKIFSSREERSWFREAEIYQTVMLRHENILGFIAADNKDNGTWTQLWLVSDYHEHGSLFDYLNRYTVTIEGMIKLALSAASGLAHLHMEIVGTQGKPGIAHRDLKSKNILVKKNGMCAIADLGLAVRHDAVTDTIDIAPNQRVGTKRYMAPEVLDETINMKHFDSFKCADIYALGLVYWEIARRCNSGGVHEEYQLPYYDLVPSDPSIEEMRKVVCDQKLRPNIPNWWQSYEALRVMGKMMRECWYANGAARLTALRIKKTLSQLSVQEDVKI
Epidermal growth factor receptor (Homo sapiens), P00533 [UNDEFINED MUTATION], sequence (P00533 whole entry, looked up, change not shown): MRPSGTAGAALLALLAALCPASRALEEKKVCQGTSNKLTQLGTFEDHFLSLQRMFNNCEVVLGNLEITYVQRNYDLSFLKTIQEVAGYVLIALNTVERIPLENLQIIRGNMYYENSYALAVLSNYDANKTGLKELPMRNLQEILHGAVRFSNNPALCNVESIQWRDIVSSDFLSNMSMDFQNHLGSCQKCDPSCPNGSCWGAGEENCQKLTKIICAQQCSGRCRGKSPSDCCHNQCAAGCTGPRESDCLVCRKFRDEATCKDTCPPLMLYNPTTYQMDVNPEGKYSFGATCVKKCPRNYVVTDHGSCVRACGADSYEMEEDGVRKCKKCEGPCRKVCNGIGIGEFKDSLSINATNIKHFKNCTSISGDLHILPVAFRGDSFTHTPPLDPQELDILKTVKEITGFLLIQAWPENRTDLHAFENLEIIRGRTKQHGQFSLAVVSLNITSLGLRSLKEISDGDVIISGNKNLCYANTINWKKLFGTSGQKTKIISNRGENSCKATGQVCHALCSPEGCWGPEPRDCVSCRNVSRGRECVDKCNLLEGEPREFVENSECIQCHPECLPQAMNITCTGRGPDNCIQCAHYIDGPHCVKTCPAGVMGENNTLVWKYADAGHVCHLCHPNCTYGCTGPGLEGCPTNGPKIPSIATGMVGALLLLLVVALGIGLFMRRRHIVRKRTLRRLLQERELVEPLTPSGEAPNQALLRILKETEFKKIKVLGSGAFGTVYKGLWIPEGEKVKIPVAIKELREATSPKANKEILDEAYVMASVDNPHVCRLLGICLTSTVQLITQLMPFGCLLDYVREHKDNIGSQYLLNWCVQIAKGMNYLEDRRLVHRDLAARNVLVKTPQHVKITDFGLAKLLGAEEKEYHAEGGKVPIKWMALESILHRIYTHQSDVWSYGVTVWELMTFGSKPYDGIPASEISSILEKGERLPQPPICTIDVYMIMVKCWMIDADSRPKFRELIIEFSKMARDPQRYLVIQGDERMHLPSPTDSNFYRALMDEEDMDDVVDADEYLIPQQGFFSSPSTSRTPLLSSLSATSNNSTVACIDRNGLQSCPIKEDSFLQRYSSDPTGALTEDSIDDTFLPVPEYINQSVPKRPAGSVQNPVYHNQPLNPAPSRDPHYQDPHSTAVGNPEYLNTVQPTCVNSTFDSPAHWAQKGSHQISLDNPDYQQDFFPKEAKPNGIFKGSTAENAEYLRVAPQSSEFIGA
Mitogen-activated protein kinase 11, sequence (Q15759 whole entry): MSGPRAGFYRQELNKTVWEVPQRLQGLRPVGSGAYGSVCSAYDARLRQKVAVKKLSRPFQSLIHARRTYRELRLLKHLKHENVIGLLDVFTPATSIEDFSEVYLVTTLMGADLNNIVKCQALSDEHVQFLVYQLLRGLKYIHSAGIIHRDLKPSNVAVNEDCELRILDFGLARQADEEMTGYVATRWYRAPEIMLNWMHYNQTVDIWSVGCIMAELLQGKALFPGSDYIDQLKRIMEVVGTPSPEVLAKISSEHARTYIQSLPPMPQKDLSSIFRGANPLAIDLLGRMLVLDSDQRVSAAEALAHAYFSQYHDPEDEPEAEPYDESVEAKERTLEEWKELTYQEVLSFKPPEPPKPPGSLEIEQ

## O=C1c2ccc(Nc3ccc(F)cc3F)cc2CCc2ccc(OC[C@H](O)CO)cc21 [Skepinone-L]
[1]; read-out: Ki
  Ki: 172 nM
[1]; read-out: pKi (converted)
  Ki: 166 nM
[2]; read-out: Ki
  Ki: 3360 nM
[2]; read-out: pKi (converted)
  Ki: 3240 nM
[3]
  IC50: 40.2 nM (active)
[4]
  % Residual activity with Skepinone-L: 97%
[5]
  % Residual activity with Skepinone-L: 99%
[6]
  % Residual activity with Skepinone-L: 102%
[7]
  % Residual activity with Skepinone-L: 95%
[8]
  % Residual activity with Skepinone-L: 77%
[9]
  % Residual activity with Skepinone-L: 100%
[10]
  % Residual activity with Skepinone-L: 112%
[11]
  % Residual activity with Skepinone-L: 83%
[12]
  % Residual activity with Skepinone-L: 88%
[13]
  % Residual activity with Skepinone-L: 88%
[14]
  % Residual activity with Skepinone-L: 89%
[15]
  % Residual activity with Skepinone-L: 100%
[16]
  % Residual activity with Skepinone-L: 109%
[17]
  % Residual activity with Skepinone-L: 91%
[18]
  % Residual activity with Skepinone-L: 108%
[19]
  % Residual activity with Skepinone-L: 91%
[20]
  % Residual activity with Skepinone-L: 113%
[21]
  % Residual activity with Skepinone-L: 111%
[22]
  % Residual activity with Skepinone-L: 95%
[23]
  % Residual activity with Skepinone-L: 121%
[24]
  % Residual activity with Skepinone-L: 33%
[25]
  % Residual activity with Skepinone-L: 114%
[26]
  % Residual activity with Skepinone-L: 95%
[27]
  % Residual activity with Skepinone-L: 95%
[28]
  % Residual activity with Skepinone-L: 120%
[29]
  % Residual activity with Skepinone-L: 85%
[30]
  % Residual activity with Skepinone-L: 83%
[31]
  % Residual activity with Skepinone-L: 107%
[32]
  % Residual activity with Skepinone-L: 105%
[33]
  % Residual activity with Skepinone-L: 78%
[34]
  % Residual activity with Skepinone-L: 99%
[35]
  % Residual activity with Skepinone-L: 85%
[36]
  % Residual activity with Skepinone-L: 77%
[37]
  % Residual activity with Skepinone-L: 102%
[38]
  % Residual activity with Skepinone-L: 102%
[39]
  % Residual activity with Skepinone-L: 39%
[40]
  % Residual activity with Skepinone-L: 86%
[41]
  % Residual activity with Skepinone-L: 94%
[42]
  % Residual activity with Skepinone-L: 53%
[43]
  % Residual activity with Skepinone-L: 115%
[44]
  % Residual activity with Skepinone-L: 113%
[45]
  inhibition: 18.8%
[46]
  inhibition: 10.3%
[47]
  inhibition: 12.7%
[48]
  inhibition: 40%
